# Measurements taken from patent publication US7763616B2, “Piperazine-piperidines with CXCR3 antagonist activity” (Schering Corporation, priority 2005, dated 2010).
# Molecular target: T1, human CXCR3 (N-delta 4) (Homo sapiens, UniProt P49682)
# T1 construct: CD8 leader (N); Flag tag; expressed in transfected cells; membrane preparation
# T1 sequence (P49682 5-368 limits assumed): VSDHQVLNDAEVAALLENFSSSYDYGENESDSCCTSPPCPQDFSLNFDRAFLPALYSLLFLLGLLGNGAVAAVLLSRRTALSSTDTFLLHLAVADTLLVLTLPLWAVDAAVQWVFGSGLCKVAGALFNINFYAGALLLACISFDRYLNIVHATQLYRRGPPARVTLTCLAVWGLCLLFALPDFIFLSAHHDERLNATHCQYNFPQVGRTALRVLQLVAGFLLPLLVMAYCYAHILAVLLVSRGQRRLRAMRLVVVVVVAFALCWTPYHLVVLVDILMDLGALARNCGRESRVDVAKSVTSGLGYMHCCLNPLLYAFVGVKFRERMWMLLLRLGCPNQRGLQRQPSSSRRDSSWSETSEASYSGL
# Assay: Human CXCR3 (N-delta 4) Scintillation Proximity Assay (SPA), [125I] IP-10 binding
# Conditions: Ba/F3-hCXCR3 (N-delta 4) membranes, 25 pM [125I] IP-10; read-out: IC50 value
# Description: The inventive compounds can readily be evaluated to determine activity at the CXCR3 receptors by known methods, such as, for example, development of a human CXCR3 (N-delta 4) Binding Assay.
# Cloning and Expression of Human CXCR3 (N-delta 4):
# The DNA encoding human CXCR3 was cloned by PCR using human genomic DNA (Promega, Madison, Wis.) as a template. The PCR primers were designed based on the published sequence of human orphan receptor GPR9 (1) with incorporated restriction sites, a Kozak consensus sequence, CD8 leader and Flag tag. The PCR product was subcloned into the mammalian expression vector pME18Sneo, a derivative of the SR-alpha expression vector (designated as pME18Sneo-hCXCR3 (N-delta 4).
# IL-3-dependent mouse pro-B cells Ba/F3 were transfected by electroporation in 0.4 ml Dulbecco's PBS containing 4×10^6 cells with 20 μg of pME18Sneo-hCXCR3 (N-delta 4) plasmid DNA. Cells were pulsed at 400 Volts, 100 OHMs, […]. The transfected cells were under selection with 1 mg/ml G418 (Life Technologies, Gaithersburg, Md.). G418-resistant Ba/F3 clones were screened for CXCR3 expression by specific binding of [^125I] IP10 (NEN Life Science Products, Boston, Mass.).
# Preparation of Ba/F3-hCXCR3 (N-delta 4) Membranes:
# Ba/F3 cells expressing human CXCR3 (N-delta 4) were pelleted and resuspended in the lysis buffer containing 10 mM HEPES, pH 7.5 and Complete® protease inhibitors (1 tablet per 100 ml) (Boehringer Mannheim, Indianapolis, Ind.) at a cell density of 20×10^6 cells per ml. After 5 minute incubation on ice, cells were transferred to 4639 cell disruption bomb (Parr Instrument, Moline, Ill.) and applied with 1,500 psi of nitrogen for 30 minutes on ice. Large cellular debris was removed by centrifugation at 1,000×g. Cell membrane in the supernatant was sedimented at 100,000×g. The membrane was resuspended in the lysis buffer supplemented with 10% sucrose and stored at −80° C. Total protein concentration of the membrane was determined by BCA method from Pierce (Rockford, Ill.).
# Human CXCR3 (N-delta 4) Scintillation Proximity Assay (SPA):
# For each assay point, 2 μg of membrane was preincubated for 1 hr with 300 μg wheat germ agglutinin (WGA) coated SPA beads (Amersham, Arlington Heights, Ill.) in the binding buffer (50 mM HEPES, 1 mM CaCl2, 5 mM MgCl2, 125 mM NaCl, 0.002% NaN3, 1.0% BSA) at room temperature. The beads were spun down, washed once, resuspended in the binding buffer and transferred to a 96-well Isoplate (Wallac, Gaithersburg, Md.). 25 pM of [^125I] IP-10 with tested compounds in a series of titration were added to start the reaction. After 3 hr reaction at room temperature, the amount of [^125I] IP10 bound to the SPA beads was determined with a Wallac 1450 Microbeta counter.
row,SMILES,IC50 [µM]
1,CC[C@H]1CN(c2nc3c(nc2Cl)CNc2c(c(=O)c2=O)N3)CCN1C1CCN(Cc2ccc(Cl)cc2F)CC1 [Compound 1],0.0003

# Same assay, conditions: IC50 ratings; Ba/F3-hCXCR3 (N-delta 4) membranes, 25 pM [125I] IP-10; read-out: IC50
row,SMILES,IC50 [µM]
1,CC[C@H]1CN(c2nc3[nH]c(=O)[nH]c3nc2Cl)CCN1C1CCN(C(C#N)c2ccc(Cl)cc2)CC1 (mixture of isomers) [Compound 33],> 0.1
2,CC[C@H]1CN(c2nc3c(nc2Cl)CNc2c(c(=O)c2=O)N3)CCN1C1CCN(Cc2ccc(Cl)cc2F)CC1 [Compound 1],< 0.025
3,CC[C@H]1CN(c2nc3[nH]c(=O)[nH]c3nc2Cl)CCN1C1CCN(Cc2ccc(Cl)cc2)CC1 [Compound 2],< 0.025
4,CC[C@H]1CN(c2nc3[nH]c(=O)[nH]c3nc2Cl)CCN1C1CCN([C@@H](CO)c2ccc(Cl)cc2)CC1 [Compound 3],< 0.025
5,CC[C@H]1CN(c2nc3c(nc2Cl)CNC(=O)N3)CCN1C1CCN(Cc2ccc(Cl)cc2F)CC1 [Compound 4],< 0.025
6,CC[C@H]1CN(c2nc3c(nc2Cl)CN/C(=N\C#N)N3)CCN1C1CCN(Cc2ccc(Cl)cc2F)CC1 [Compound 5],< 0.025
7,CC[C@H]1CN(c2nc3[nH]c(=O)[nH]c3nc2Cl)CCN1C1CCN(Cc2ccc(Cl)cc2F)CC1 [Compound 6],< 0.025
8,CC[C@H]1CN(c2nc3[nH]c(=O)n(C)c(=O)c3nc2Cl)CCN1C1CCN(Cc2ccc(Cl)cc2)CC1 [Compound 7],< 0.025
9,CC[C@H]1CN(c2nc3[nH]c(=O)n(C(=O)OC(C)(C)C)c3nc2Cl)CCN1C1CCN(Cc2ccc(Cl)cc2)CC1 [Compound 8],< 0.025
10,CC[C@H]1CN(c2cc3[nH]c(C(F)(F)F)nc3cc2Cl)CCN1C1CCN(Cc2ccc(Cl)cc2F)CC1 [Compound 9],< 0.025
11,CC[C@H]1CN(c2nc3[nH]c(=O)[nH]c3nc2Cl)CCN1C1CCN([C@H](CO)c2ccc(Cl)cc2)CC1 [Compound 11],< 0.025
12,CC[C@H]1CN(c2nc3[nH]c(=O)[nH]c3nc2Cl)CCN1C1CCN(C(=O)c2ccc(Cl)nc2N)CC1 [Compound 12],< 0.025
13,CC[C@H]1CN(c2nc3[nH]c(=O)[nH]c3nc2Cl)CCN1C1CCN(Cc2ccc(Cl)cc2C#N)CC1 [Compound 13],< 0.025
14,CCc1nc2nc(N3CCN(C4CCN(Cc5ccc(Cl)cc5F)CC4)[C@@H](CC)C3)c(Cl)nc2c(=O)n1CC [Compound 15],< 0.025
15,CC[C@H]1CN(c2nc3c(nc2Cl)CNC(=O)N3)CCN1C1CCN(C(=O)c2ccc(Cl)nc2N)CC1 [Compound 16],< 0.025
16,CC[C@H]1CN(c2nc3[nH]c(=O)[nH]c3nc2Cl)CCN1C1CCN(Cc2ccc(-n3cccn3)cc2)CC1 [Compound 17],< 0.025
17,CC[C@H]1CN(c2nc3c(nc2Cl)C(=O)NCCN3)CCN1C1CCN(C(=O)c2ccc(Cl)nc2N)CC1 [Compound 18],0.025 to 0.1

row,SMILES,IC50 [µM]
1,CC[C@H]1CN(c2nc3[nH]c(=O)[nH]c3nc2Cl)CCN1C1CCN(C(=O)c2ccc(Cl)cc2)CC1 [Compound 19],0.025 to 0.1
2,CC[C@H]1CN(c2nc3ncn(CC)c(=O)c3nc2Cl)CCN1C1CCN(Cc2ccc(Cl)cc2)CC1 [Compound 20],0.025 to 0.1
3,CC[C@H]1CN(c2cc3[nH]c(=O)[nH]c3cc2Cl)CCN1C1CCN(Cc2ccc(Cl)cc2F)CC1 [Compound 21],0.025 to 0.1
4,CC[C@H]1CN(c2nc3c(nc2Cl)[nH]c(=O)n3Cc2ccc(Cl)cc2C#N)CCN1C1CCN(Cc2ccc(Cl)cc2C#N)CC1 [Compound 22],0.025 to 0.1
5,CC[C@H]1CN(c2nc3nc(C)n(CC)c(=O)c3nc2Cl)CCN1C1CCN(Cc2ccc(Cl)cc2F)CC1 [Compound 23],0.025 to 0.1
6,CC[C@H]1CN(c2cc3[nH]cnc3cc2Cl)CCN1C1CCN(Cc2ccc(Cl)cc2F)CC1 [Compound 24],0.025 to 0.1
7,CC[C@H]1CN(c2cc3[nH]cnc3cc2Cl)CCN1C1CCN(Cc2ccc(Cl)cc2F)CC1 [Compound 25],> 0.1
8,CC[C@H]1CN(c2nc3[nH]c(=O)n(Cc4ccc(Cl)cc4C#N)c3nc2Cl)CCN1C1CCN(Cc2ccc(Cl)cc2C#N)CC1 [Compound 26],> 0.1
9,CC[C@H]1CN(c2cc3[nH]c(=S)[nH]c3cc2Cl)CCN1C1CCN(Cc2ccc(Cl)cc2F)CC1 [Compound 28],> 0.1
10,CC[C@H]1CN(c2cc3[nH]c(=O)c(=O)[nH]c3cc2Cl)CCN1C1CCN(Cc2ccc(Cl)cc2F)CC1 [Compound 29],> 0.1
11,CC[C@H]1CN(c2nc3[nH]c(=O)[nH]c3nc2Cl)CCN1C1CCN([C@H](C(=O)OC)c2ccc(Cl)cc2)CC1 [Compound 30],> 0.1
12,CCNC(=O)n1cnc2cc(Cl)c(N3CCN(C4CCN(Cc5ccc(Cl)cc5F)CC4)[C@@H](CC)C3)cc21 [Compound 31],> 0.1
13,CC[C@H]1CN(c2cc3[nH]c(-c4ccccc4)nc3cc2Cl)CCN1C1CCN(Cc2ccc(Cl)cc2F)CC1 [Compound 32],> 0.1
14,CC[C@H]1CN(c2nc3c(nc2Cl)C(=O)NCCNC(=O)N3)CCN1C1CCN(C(=O)c2ccc(Cl)nc2N)CC1 [Compound 34],> 0.1
15,CC[C@H]1CN(c2cc3c(cc2Cl)nc(NS(C)(=O)=O)n3S(C)(=O)=O)CCN1C1CCN(Cc2ccc(Cl)cc2F)CC1 [Compound 35],> 0.1
16,CC[C@H]1CN(c2cc3c(cc2Cl)nc(C(F)(F)F)n3C)CCN1C1CCN(Cc2ccc(Cl)cc2F)CC1 [Compound 37],> 0.1
17,CCc1nc2nc(N3CCN(C4CCN(Cc5ccc(Cl)cc5F)CC4)[C@@H](CC)C3)c(O)nc2c(=O)n1CC [Compound 38],> 0.1
